Assay results reported in BindingDB's records for patent US20240148821 (Chugai Seiyaku Kabushiki Kaisha, 2024).
Numbered stars: 1 amine (or outer) side, 2 acyl side, 3 side chain; on linkers, the order of the positions; unused ones are H or OH. Bridge positions count the residues as written; N and C are the ends. Square brackets hold non-standard residues; d marks the D form. Peptide text beside a SMILES is read from it. * marks the point of attachment. hPhe(3-Cl-4-CF3) = N[C@@H](CCc1ccc(C(F)(F)F)c(Cl)c1)C(=O)O; hPhe(3-F,4-CF3) = N[C@@H](CCc1ccc(C(F)(F)F)c(F)c1)C(=O)O; X123 = O=C([C@@H]1C[C@H](n2ccnn2)CN1[*:1])[*:2]; X31 = O=C([C@@H]1C[C@@H](n2ccnn2)CN1[*:1])[*:2]; NMeAla(cPent) = CN[C@@H](CC1CCCC1)C(=O)O; oXylylene = c1ccc(C[*:2])c(C[*:1])c1; NMeCha = CN[C@@H](CC1CCCCC1)C(=O)O; cisHyp = O=C(O)[C@@H]1C[C@H](O)CN1; Hyp = O=C(O)[C@@H]1C[C@@H](O)CN1; NMeD = CN[C@@H](CC(=O)O)C(=O)O; Benzyl(4-Cl) = Clc1ccc(C*)cc1; NMeL = CN[C@@H](CC(C)C)C(=O)O; NMeV = CN[C@H](C(=O)O)C(C)C; Piperidide = C1CCN(*)CC1; X57 = FC(F)Oc1ccc(C*)cc1; Ac5c = NC1(C(=O)O)CCCC1; X106 = Clc1cccc(C*)c1; X94 = COc1cccc(C*)c1; Meb = Cc1ccc(C*)cc1; X87 = Clc1ccccc1C*; Sar = CNCC(=O)O

What follows are compounds tested against GTPase KRas (G12D) and Son of Sevenless Homolog 1 (SOS) (Homo sapiens, UniProt P01116, G12D) (assay: AlphaScreen Assay).
Sequence of GTPase KRas (G12D) and Son of Sevenless Homolog 1 (SOS) (P01116 whole entry G12D): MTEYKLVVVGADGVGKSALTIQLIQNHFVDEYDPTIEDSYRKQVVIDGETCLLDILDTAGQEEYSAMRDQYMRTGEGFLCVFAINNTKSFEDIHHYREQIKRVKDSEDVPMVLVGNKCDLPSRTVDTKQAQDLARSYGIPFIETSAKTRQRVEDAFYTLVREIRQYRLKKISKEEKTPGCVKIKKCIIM
Sequence of GTPase KRas (G12D) and Son of Sevenless Homolog 1 (SOS) (Q07889 whole entry, further chain): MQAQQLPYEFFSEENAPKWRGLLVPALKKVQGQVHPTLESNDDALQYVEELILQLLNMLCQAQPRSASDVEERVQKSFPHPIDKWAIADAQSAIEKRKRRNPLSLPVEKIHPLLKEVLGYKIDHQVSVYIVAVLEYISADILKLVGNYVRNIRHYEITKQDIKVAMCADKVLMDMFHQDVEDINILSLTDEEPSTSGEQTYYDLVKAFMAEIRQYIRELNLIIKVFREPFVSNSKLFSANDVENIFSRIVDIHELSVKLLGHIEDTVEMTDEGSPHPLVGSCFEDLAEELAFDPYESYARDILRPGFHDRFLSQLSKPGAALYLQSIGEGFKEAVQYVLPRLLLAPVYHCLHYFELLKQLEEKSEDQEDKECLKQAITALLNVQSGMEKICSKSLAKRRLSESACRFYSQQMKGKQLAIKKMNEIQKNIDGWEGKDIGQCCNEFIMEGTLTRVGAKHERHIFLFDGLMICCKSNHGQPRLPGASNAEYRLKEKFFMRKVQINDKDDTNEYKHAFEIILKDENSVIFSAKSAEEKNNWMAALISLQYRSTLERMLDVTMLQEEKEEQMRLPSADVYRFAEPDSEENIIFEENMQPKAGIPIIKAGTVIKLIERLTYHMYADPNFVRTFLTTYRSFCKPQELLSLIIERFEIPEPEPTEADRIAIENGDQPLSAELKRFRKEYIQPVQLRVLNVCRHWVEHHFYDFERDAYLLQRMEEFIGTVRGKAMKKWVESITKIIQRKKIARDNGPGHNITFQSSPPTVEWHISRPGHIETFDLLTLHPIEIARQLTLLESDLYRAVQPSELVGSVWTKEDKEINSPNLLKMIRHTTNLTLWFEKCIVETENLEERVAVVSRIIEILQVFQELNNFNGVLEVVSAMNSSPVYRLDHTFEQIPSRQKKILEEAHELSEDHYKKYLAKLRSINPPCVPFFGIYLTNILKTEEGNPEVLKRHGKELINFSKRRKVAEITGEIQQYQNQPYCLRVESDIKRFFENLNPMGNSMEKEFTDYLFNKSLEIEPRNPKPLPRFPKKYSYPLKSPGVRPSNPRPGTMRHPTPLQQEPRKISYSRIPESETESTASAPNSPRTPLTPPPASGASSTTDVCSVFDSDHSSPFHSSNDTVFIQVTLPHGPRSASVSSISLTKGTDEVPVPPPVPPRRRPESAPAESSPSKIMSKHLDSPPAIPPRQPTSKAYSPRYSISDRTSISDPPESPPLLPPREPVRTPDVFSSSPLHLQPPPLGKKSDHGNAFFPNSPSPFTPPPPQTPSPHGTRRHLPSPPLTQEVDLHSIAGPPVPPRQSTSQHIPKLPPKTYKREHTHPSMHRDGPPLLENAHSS
Procedure: Protein-protein interaction inhibition (PPI) between Kras and SOS1 was measured by energy transfer from nickel-conjugated donor beads to streptavidin-conjugated acceptor beads using biotin-tagged human Kras expressed in E. coli and loaded with GDP after purification and His-tagged human SOS1 enzyme. This measurement utilizes the phenomenon in which donor beads are irradiated with light at 680 nm, such that energy is transferred to acceptor beads through singlet oxygen and light at 520-620 nm is detected from the acceptor beads.

IC50 [nM]	SMILES
0.47	CC[C@H](C)[C@@H]1NC(=O)[C@H](CC(C)C)N(C)C(=O)C[C@@H](C(=O)N2CCCCC2)N(C)C(=O)[C@H](C(C)C)N(C)C(=O)C2(CCCC2)NC(=O)[C@@H]2C[C@@H](n3ccnn3)CN2C(=O)[C@H](CCc2ccc(C(F)(F)F)c(Cl)c2)NC(=O)CN(C)C(=O)[C@H](CC2CCCC2)N(C)C(=O)CN(C)C(=O)CN(C)C1=O [US20240148821, Compound 2113] ([NMeL]I[Sar][Sar][NMeAla(cPent)][Sar][hPhe(3-Cl-4-CF3)][X31][Ac5c][NMeV][NMeD]-Piperidide; lactam N-11)
1.1	CC[C@H](C)[C@@H]1NC(=O)[C@H](CC(C)C)N(C)C(=O)C[C@@H](C(=O)N2CCCCC2)N(C)C(=O)[C@H](C(C)C)N(C)C(=O)C2(CCCC2)NC(=O)[C@@H]2C[C@H](n3ccnn3)CN2C(=O)[C@H](CCc2ccc(C(F)(F)F)c(Cl)c2)NC(=O)CN(C)C(=O)[C@H](CC2CCCC2)N(C)C(=O)CN(C)C(=O)CN(C)C1=O [US20240148821, Compound 2115] ([NMeL]I[Sar][Sar][NMeAla(cPent)][Sar][hPhe(3-Cl-4-CF3)][X123][Ac5c][NMeV][NMeD]-Piperidide; lactam N-11)
3.2	CCO[C@@H]1C[C@H]2C(=O)NC3(CCCC3)C(=O)N(C)[C@@H](CC(C)C)C(=O)N(C)[C@H](C(=O)N3CCCCC3)CC(=O)N(C)[C@@H](CC(C)C)C(=O)N[C@@H]([C@@H](C)CC)C(=O)N(C)CC(=O)N(C)CC(=O)N(C)[C@@H](CC3CCCCC3)C(=O)N(C)CC(=O)N[C@@H](CCc3ccc(C(F)(F)F)c(F)c3)C(=O)N2C1 [US20240148821, Compound 2118] ([NMeL]I[Sar][Sar][NMeCha][Sar][hPhe(3-F,4-CF3)][Hyp](Et)[Ac5c][NMeL][NMeD]-Piperidide; lactam N-11)
4.5	CCO[C@H]1C[C@H]2C(=O)NC3(CCCC3)C(=O)N(C)[C@@H](CC(C)C)C(=O)N(C)[C@H](C(=O)N3CCCCC3)CC(=O)N(C)[C@@H](CC(C)C)C(=O)N[C@@H]([C@@H](C)CC)C(=O)N(C)CC(=O)N(C)CC(=O)N(C)[C@@H](CC3CCCCC3)C(=O)N(C)CC(=O)N[C@@H](CCc3ccc(C(F)(F)F)c(F)c3)C(=O)N2C1 [US20240148821, Compound 2127] ([NMeL]I[Sar][Sar][NMeCha][Sar][hPhe(3-F,4-CF3)][cisHyp](Et)[Ac5c][NMeL][NMeD]-Piperidide; lactam N-11)
15	CC[C@H](C)[C@@H]1NC(=O)[C@H](CC(C)C)N(C)C(=O)C[C@@H](C(=O)N2CCCCC2)N(C)C(=O)[C@H](CC(C)C)N(C)C(=O)C2(CCCC2)NC(=O)[C@@H]2C[C@@H](OCc3ccc(OC(F)F)cc3)CN2C(=O)[C@H](CCc2ccc(C(F)(F)F)c(F)c2)NC(=O)CN(C)C(=O)[C@H](CC2CCCCC2)N(C)C(=O)CN(C)C(=O)CN(C)C1=O [US20240148821, Compound 2128] ([NMeL]I[Sar][Sar][NMeCha][Sar][hPhe(3-F,4-CF3)][Hyp](X57)[Ac5c][NMeL][NMeD]-Piperidide; lactam N-11)
46	CC[C@H](C)[C@@H]1NC(=O)[C@H](CC(C)C)N(C)C(=O)C[C@@H](C(=O)N2CCCCC2)N(C)C(=O)[C@H](CC(C)C)N(C)C(=O)C2(CCCC2)NC(=O)[C@@H]2C[C@H](OCc3ccc(Cl)cc3)CN2C(=O)[C@H](CCc2ccc(C(F)(F)F)c(F)c2)NC(=O)CN(C)C(=O)[C@H](CC2CCCCC2)N(C)C(=O)CN(C)C(=O)CN(C)C1=O [US20240148821, Compound 2129] ([NMeL]I[Sar][Sar][NMeCha][Sar][hPhe(3-F,4-CF3)][cisHyp](Benzyl(4-Cl))[Ac5c][NMeL][NMeD]-Piperidide; lactam N-11)
10	CC[C@H](C)[C@@H]1NC(=O)[C@H](CC(C)C)N(C)C(=O)C[C@@H](C(=O)N2CCCCC2)N(C)C(=O)[C@H](CC(C)C)N(C)C(=O)C2(CCCC2)NC(=O)[C@@H]2C[C@@H](OCc3ccc(C)cc3)CN2C(=O)[C@H](CCc2ccc(C(F)(F)F)c(F)c2)NC(=O)CN(C)C(=O)[C@H](CC2CCCCC2)N(C)C(=O)CN(C)C(=O)CN(C)C1=O [US20240148821, Compound 2130] ([NMeL]I[Sar][Sar][NMeCha][Sar][hPhe(3-F,4-CF3)][Hyp](Meb)[Ac5c][NMeL][NMeD]-Piperidide; lactam N-11)
9.8	CC[C@H](C)[C@@H]1NC(=O)[C@H](CC(C)C)N(C)C(=O)C[C@@H](C(=O)N2CCCCC2)N(C)C(=O)[C@H](CC(C)C)N(C)C(=O)C2(CCCC2)NC(=O)[C@@H]2C[C@@H](OCc3cccc(OC)c3)CN2C(=O)[C@H](CCc2ccc(C(F)(F)F)c(F)c2)NC(=O)CN(C)C(=O)[C@H](CC2CCCCC2)N(C)C(=O)CN(C)C(=O)CN(C)C1=O [US20240148821, Compound 2131] ([NMeL]I[Sar][Sar][NMeCha][Sar][hPhe(3-F,4-CF3)][Hyp](X94)[Ac5c][NMeL][NMeD]-Piperidide; lactam N-11)
91	CC[C@H](C)[C@@H]1NC(=O)[C@H](CC(C)C)N(C)C(=O)C[C@@H](C(=O)N2CCCCC2)N(C)C(=O)[C@H](CC(C)C)N(C)C(=O)C2(CCCC2)NC(=O)[C@@H]2C[C@H](OCc3ccccc3Cl)CN2C(=O)[C@H](CCc2ccc(C(F)(F)F)c(F)c2)NC(=O)CN(C)C(=O)[C@H](CC2CCCCC2)N(C)C(=O)CN(C)C(=O)CN(C)C1=O [US20240148821, Compound 2132] ([NMeL]I[Sar][Sar][NMeCha][Sar][hPhe(3-F,4-CF3)][cisHyp](X87)[Ac5c][NMeL][NMeD]-Piperidide; lactam N-11)
12	CC[C@H](C)[C@@H]1NC(=O)[C@H](CC(C)C)N(C)C(=O)C[C@@H](C(=O)N2CCCCC2)N(C)C(=O)[C@H](CC(C)C)N(C)C(=O)C2(CCCC2)NC(=O)[C@@H]2C[C@@H](OCc3ccc(Cl)cc3)CN2C(=O)[C@H](CCc2ccc(C(F)(F)F)c(F)c2)NC(=O)CN(C)C(=O)[C@H](CC2CCCCC2)N(C)C(=O)CN(C)C(=O)CN(C)C1=O [US20240148821, Compound 2133] ([NMeL]I[Sar][Sar][NMeCha][Sar][hPhe(3-F,4-CF3)][Hyp](Benzyl(4-Cl))[Ac5c][NMeL][NMeD]-Piperidide; lactam N-11)
88	CC[C@H](C)[C@@H]1NC(=O)[C@H](CC(C)C)N(C)C(=O)C[C@@H](C(=O)N2CCCCC2)N(C)C(=O)[C@H](CC(C)C)N(C)C(=O)C2(CCCC2)NC(=O)[C@@H]2C[C@H](OCc3ccc(OC(F)F)cc3)CN2C(=O)[C@H](CCc2ccc(C(F)(F)F)c(F)c2)NC(=O)CN(C)C(=O)[C@H](CC2CCCCC2)N(C)C(=O)CN(C)C(=O)CN(C)C1=O [US20240148821, Compound 2135] ([NMeL]I[Sar][Sar][NMeCha][Sar][hPhe(3-F,4-CF3)][cisHyp](X57)[Ac5c][NMeL][NMeD]-Piperidide; lactam N-11)
39	CC[C@H](C)[C@@H]1NC(=O)[C@H](CC(C)C)N(C)C(=O)C[C@@H](C(=O)N2CCCCC2)N(C)C(=O)[C@H](CC(C)C)N(C)C(=O)C2(CCCC2)NC(=O)[C@@H]2C[C@H](OCc3cccc(OC)c3)CN2C(=O)[C@H](CCc2ccc(C(F)(F)F)c(F)c2)NC(=O)CN(C)C(=O)[C@H](CC2CCCCC2)N(C)C(=O)CN(C)C(=O)CN(C)C1=O [US20240148821, Compound 2136] ([NMeL]I[Sar][Sar][NMeCha][Sar][hPhe(3-F,4-CF3)][cisHyp](X94)[Ac5c][NMeL][NMeD]-Piperidide; lactam N-11)
69	CC[C@H](C)[C@@H]1NC(=O)[C@H](CC(C)C)N(C)C(=O)C[C@@H](C(=O)N2CCCCC2)N(C)C(=O)[C@H](CC(C)C)N(C)C(=O)C2(CCCC2)NC(=O)[C@@H]2C[C@H](OCc3ccccc3C)CN2C(=O)[C@H](CCc2ccc(C(F)(F)F)c(F)c2)NC(=O)CN(C)C(=O)[C@H](CC2CCCCC2)N(C)C(=O)CN(C)C(=O)CN(C)C1=O [US20240148821, Compound 2137] ([NMeL]I[Sar][Sar][NMeCha][Sar][hPhe(3-F,4-CF3)][cisHyp](oXylylene)[Ac5c][NMeL][NMeD]-Piperidide; lactam N-11)
8.6	CC[C@H](C)[C@@H]1NC(=O)[C@H](CC(C)C)N(C)C(=O)C[C@@H](C(=O)N2CCCCC2)N(C)C(=O)[C@H](CC(C)C)N(C)C(=O)C2(CCCC2)NC(=O)[C@@H]2C[C@@H](OCc3ccccc3Cl)CN2C(=O)[C@H](CCc2ccc(C(F)(F)F)c(F)c2)NC(=O)CN(C)C(=O)[C@H](CC2CCCCC2)N(C)C(=O)CN(C)C(=O)CN(C)C1=O [US20240148821, Compound 2138] ([NMeL]I[Sar][Sar][NMeCha][Sar][hPhe(3-F,4-CF3)][Hyp](X87)[Ac5c][NMeL][NMeD]-Piperidide; lactam N-11)
23	CC[C@H](C)[C@@H]1NC(=O)[C@H](CC(C)C)N(C)C(=O)C[C@@H](C(=O)N2CCCCC2)N(C)C(=O)[C@H](CC(C)C)N(C)C(=O)C2(CCCC2)NC(=O)[C@@H]2C[C@@H](OCc3ccccc3C)CN2C(=O)[C@H](CCc2ccc(C(F)(F)F)c(F)c2)NC(=O)CN(C)C(=O)[C@H](CC2CCCCC2)N(C)C(=O)CN(C)C(=O)CN(C)C1=O [US20240148821, Compound 2139] ([NMeL]I[Sar][Sar][NMeCha][Sar][hPhe(3-F,4-CF3)][Hyp](oXylylene)[Ac5c][NMeL][NMeD]-Piperidide; lactam N-11)

SMILES	IC50 [nM]
CC[C@H](C)[C@@H]1NC(=O)[C@H](CC(C)C)N(C)C(=O)C[C@@H](C(=O)N2CCCCC2)N(C)C(=O)[C@H](CC(C)C)N(C)C(=O)C2(CCCC2)NC(=O)[C@@H]2C[C@H](OCc3cccc(Cl)c3)CN2C(=O)[C@H](CCc2ccc(C(F)(F)F)c(F)c2)NC(=O)CN(C)C(=O)[C@H](CC2CCCCC2)N(C)C(=O)CN(C)C(=O)CN(C)C1=O [US20240148821, Compound 2126] ([NMeL]I[Sar][Sar][NMeCha][Sar][hPhe(3-F,4-CF3)][cisHyp](X106)[Ac5c][NMeL][NMeD]-Piperidide; lactam N-11)	37
CC[C@H](C)[C@@H]1NC(=O)[C@H](CC(C)C)N(C)C(=O)C[C@@H](C(=O)N2CCCCC2)N(C)C(=O)[C@H](CC(C)C)N(C)C(=O)C2(CCCC2)NC(=O)[C@@H]2C[C@@H](OCc3cccc(Cl)c3)CN2C(=O)[C@H](CCc2ccc(C(F)(F)F)c(F)c2)NC(=O)CN(C)C(=O)[C@H](CC2CCCCC2)N(C)C(=O)CN(C)C(=O)CN(C)C1=O [US20240148821, Compound 2134] ([NMeL]I[Sar][Sar][NMeCha][Sar][hPhe(3-F,4-CF3)][Hyp](X106)[Ac5c][NMeL][NMeD]-Piperidide; lactam N-11)	9.8
